Biological target: Serine/threonine-protein phosphatase PP1-alpha catalytic subunit (Homo sapiens) (UniProt P62136)
Test: dose-dependent PP1alpha phosphatase inhibition – biochemical, fluorescence, OMFP substrate, set 3, dose response (AID 652220)
Conditions: purified PP1alpha, OMFP dephosphorylation

Chain of Serine/threonine-protein phosphatase PP1-alpha catalytic subunit (Homo sapiens) (P62136 whole entry, looked up): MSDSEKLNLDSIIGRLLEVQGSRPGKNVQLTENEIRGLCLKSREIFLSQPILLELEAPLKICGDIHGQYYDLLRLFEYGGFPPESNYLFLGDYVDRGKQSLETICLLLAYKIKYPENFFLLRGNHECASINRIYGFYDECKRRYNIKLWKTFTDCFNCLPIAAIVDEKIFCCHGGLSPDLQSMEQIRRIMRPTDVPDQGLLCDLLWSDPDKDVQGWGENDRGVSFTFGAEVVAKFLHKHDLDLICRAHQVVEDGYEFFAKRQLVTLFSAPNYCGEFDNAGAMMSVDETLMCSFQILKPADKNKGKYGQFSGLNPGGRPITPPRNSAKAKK

Row | IC50 [µM] | SMILES
1 | 5.86 | CN1CCN([C@H](c2ncccn2)c2ccc3cccnc3c2O)CC1
2 | 4.81 | CN1CCN([C@@H](c2ncccn2)c2ccc3cccnc3c2O)CC1
